Assay results from paper PMC12621043, “Un-LOK-ing a New Approach for Conformational Selective Targeting of STK10 (LOK)” (ACS Medicinal Chemistry Letters, 2025).

Key:
Experiment in all cases: DSF Tm panel
Format in all cases: binding
Conditions in all cases: 10 μM compound
FLT1A = biological target: T1, FLT1A (Homo sapiens, UniProt P17948)
T1 construct: purchased in-house DSF kinase panel (SGC-style construct names; the trailing letter is the construct ID)
T1 sequence (P17948 801-1158): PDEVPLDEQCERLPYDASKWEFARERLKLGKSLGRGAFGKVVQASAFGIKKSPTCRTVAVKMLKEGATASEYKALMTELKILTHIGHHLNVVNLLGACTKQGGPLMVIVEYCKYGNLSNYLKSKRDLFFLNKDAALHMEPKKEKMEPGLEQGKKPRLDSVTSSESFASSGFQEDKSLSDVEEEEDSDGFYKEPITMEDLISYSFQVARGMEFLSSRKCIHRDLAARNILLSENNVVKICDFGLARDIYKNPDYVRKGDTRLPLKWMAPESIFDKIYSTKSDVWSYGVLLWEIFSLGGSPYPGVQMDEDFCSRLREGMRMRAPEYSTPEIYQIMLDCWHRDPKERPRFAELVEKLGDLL

STK38LA = biological target: T2, STK38LA (Homo sapiens, UniProt Q9Y2H1)
T2 construct: purchased in-house DSF kinase panel (SGC-style construct names; the trailing letter is the construct ID)

CSNK1EA = biological target: T3, CSNK1EA (Homo sapiens, UniProt P49674)
T3 construct: purchased in-house DSF kinase panel (SGC-style construct names; the trailing letter is the construct ID)
T3 sequence (P49674 1-294): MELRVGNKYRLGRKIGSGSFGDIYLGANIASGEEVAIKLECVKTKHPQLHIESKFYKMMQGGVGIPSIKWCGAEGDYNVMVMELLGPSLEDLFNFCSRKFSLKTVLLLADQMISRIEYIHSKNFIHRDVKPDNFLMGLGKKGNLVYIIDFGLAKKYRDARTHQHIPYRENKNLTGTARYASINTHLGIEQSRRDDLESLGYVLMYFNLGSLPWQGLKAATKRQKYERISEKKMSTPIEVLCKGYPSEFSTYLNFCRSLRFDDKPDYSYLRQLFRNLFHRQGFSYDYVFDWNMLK

BRPF1B = biological target: T4, BRPF1B (Homo sapiens, UniProt P55201)
T4 construct: purchased in-house DSF kinase panel (SGC-style construct names; the trailing letter is the construct ID)
T4 sequence (P55201 1-1214): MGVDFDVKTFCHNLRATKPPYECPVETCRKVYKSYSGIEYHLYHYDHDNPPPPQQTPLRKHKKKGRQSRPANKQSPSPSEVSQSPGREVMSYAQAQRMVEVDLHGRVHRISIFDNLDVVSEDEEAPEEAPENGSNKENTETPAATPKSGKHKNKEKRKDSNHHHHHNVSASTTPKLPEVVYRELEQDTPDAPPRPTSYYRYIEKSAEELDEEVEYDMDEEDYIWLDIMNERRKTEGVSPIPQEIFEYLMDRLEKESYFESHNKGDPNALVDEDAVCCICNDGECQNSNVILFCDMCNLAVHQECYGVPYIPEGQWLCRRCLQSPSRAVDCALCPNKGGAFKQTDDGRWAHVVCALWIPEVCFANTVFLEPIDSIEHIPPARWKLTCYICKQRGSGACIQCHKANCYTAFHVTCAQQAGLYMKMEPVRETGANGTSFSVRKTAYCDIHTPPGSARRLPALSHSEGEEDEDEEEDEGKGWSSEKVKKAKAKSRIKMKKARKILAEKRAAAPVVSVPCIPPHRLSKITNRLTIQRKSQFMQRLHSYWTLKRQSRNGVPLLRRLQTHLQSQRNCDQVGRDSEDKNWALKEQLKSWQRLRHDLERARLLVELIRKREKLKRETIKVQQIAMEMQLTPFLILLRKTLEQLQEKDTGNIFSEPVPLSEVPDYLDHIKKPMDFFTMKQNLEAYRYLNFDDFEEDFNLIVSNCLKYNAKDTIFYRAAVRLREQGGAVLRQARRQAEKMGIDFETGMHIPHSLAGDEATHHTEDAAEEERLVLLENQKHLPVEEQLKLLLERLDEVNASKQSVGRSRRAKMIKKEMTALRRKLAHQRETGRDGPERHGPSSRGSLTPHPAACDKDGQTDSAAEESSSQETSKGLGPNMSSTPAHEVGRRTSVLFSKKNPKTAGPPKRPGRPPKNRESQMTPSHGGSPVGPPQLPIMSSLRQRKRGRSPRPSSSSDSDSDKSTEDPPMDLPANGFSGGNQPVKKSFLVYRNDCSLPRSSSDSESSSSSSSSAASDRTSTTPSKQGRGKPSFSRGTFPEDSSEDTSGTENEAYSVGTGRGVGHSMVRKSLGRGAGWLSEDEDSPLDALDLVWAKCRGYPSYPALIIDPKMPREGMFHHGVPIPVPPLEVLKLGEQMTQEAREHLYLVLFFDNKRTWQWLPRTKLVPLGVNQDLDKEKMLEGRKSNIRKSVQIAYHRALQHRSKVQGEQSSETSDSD

TLK1A = biological target: T5, TLK1A (Homo sapiens, UniProt Q9UKI8)
T5 construct: purchased in-house DSF kinase panel (SGC-style construct names; the trailing letter is the construct ID)
T5 sequence (Q9UKI8 456-734): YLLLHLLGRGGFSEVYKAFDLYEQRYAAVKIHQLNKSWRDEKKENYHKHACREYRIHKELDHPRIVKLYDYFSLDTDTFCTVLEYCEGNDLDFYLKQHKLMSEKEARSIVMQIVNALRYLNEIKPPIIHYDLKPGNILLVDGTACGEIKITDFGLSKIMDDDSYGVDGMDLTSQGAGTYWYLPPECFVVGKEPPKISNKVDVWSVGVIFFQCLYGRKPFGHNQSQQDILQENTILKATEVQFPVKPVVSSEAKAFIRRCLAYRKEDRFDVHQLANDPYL

T2 sequence (Q9Y2H1 90-453): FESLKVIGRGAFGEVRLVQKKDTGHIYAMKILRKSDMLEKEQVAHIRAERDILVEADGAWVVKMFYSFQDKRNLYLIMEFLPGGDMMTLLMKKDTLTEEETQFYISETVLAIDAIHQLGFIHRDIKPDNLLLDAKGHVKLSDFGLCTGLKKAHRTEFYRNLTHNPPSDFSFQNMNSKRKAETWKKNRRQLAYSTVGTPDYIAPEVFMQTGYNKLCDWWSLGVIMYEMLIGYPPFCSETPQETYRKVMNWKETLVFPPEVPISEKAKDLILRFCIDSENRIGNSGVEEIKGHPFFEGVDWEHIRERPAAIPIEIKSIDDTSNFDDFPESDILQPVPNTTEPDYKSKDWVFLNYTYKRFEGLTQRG

ΔTm at 10 µM (FLT1A) [°C] | ΔTm at 10 µM (STK38LA) [°C] | ΔTm at 10 µM (CSNK1EA) [°C] | ΔTm at 10 µM (BRPF1B) [°C] | ΔTm at 10 µM (TLK1A) [°C] | Compound
2.1 | 0.7 | – | – | – | O=C(NCc1ccccc1Cl)Nc1ccc2cc1OCCOCCNc1ccn3ncc-2c3n1 [compound 17]
1.4 | 0.7 | – | – | – | O=C(NCc1ccc(Cl)cc1Cl)Nc1ccc2cc1OCCOCCNc1ccn3ncc-2c3n1 [compound 20]
2.6 | 1.2 | – | – | – | O=C(NCc1ccc(Cl)cc1F)Nc1ccc2cc1OCCOCCNc1ccn3ncc-2c3n1 [compound 21]
2 | 1.7 | – | – | – | Cc1cc(Cl)ccc1CNC(=O)Nc1ccc2cc1OCCOCCNc1ccn3ncc-2c3n1 [compound 23]
– | – | 0.7 | 1.6 | 1 | Cc1cc(Br)ccc1CNC(=O)Nc1ccc2cc1OCCOCCNc1ccn3ncc-2c3n1 [compound 24]
4.4 | 0.4 | – | – | – | CN1CCN(C(=O)Nc2ccc3cc2OCCOCCNc2ccn4ncc-3c4n2)CC1 [compound 35]
3.4 | 0.6 | – | – | – | O=C(NCc1ccc(Cl)cc1)Nc1ccc2cc1OCCOCCNc1ccn3ncc-2c3n1 [compound 19]
– | – | 0 | 1.9 | 1.3 | O=C(NCc1ccccc1C(F)(F)F)Nc1ccc2cc1OCCOCCNc1ccn3ncc-2c3n1 [compound 27]
– | – | 0.6 | 1.2 | 0.9 | COc1cc(CNC(=O)Nc2ccc3cc2OCCOCCNc2ccn4ncc-3c4n2)ccc1F [compound 33]
– | – | 0.3 | 1.5 | 1.2 | COc1ccc(CNC(=O)Nc2ccc3cc2OCCOCCNc2ccn4ncc-3c4n2)cc1F [compound 32]
3.7 | 1.1 | – | – | – | O=C(NCc1cccc(Cl)c1)Nc1ccc2cc1OCCOCCNc1ccn3ncc-2c3n1 [compound 18]
– | – | 0.7 | 1 | 0.9 | Cc1ccc(F)cc1CNC(=O)Nc1ccc2cc1OCCOCCNc1ccn3ncc-2c3n1 [compound 26]
– | – | 0.7 | -0.1 | 0.4 | COc1ccccc1CNC(=O)Nc1ccc2cc1OCCOCCNc1ccn3ncc-2c3n1 [compound 29]
– | – | 0.6 | 1 | 1.1 | COc1ccc(CNC(=O)Nc2ccc3cc2OCCOCCNc2ccn4ncc-3c4n2)cc1 [compound 31]
– | – | -0.2 | 2.2 | 1.6 | O=C(NCc1ccc(C(F)(F)F)cc1)Nc1ccc2cc1OCCOCCNc1ccn3ncc-2c3n1 [compound 28]
4.7 | 0.8 | – | – | – | O=C(NCc1ccccc1)Nc1ccc2cc1OCCOCCNc1ccn3ncc-2c3n1 [compound 16]
– | – | 0.4 | 0.5 | 0.4 | C[C@H](NC(=O)Nc1ccc2cc1OCCOCCNc1ccn3ncc-2c3n1)c1ccccc1 [compound 34]
– | – | 0.7 | 0.2 | 0.7 | COc1cccc(CNC(=O)Nc2ccc3cc2OCCOCCNc2ccn4ncc-3c4n2)c1 [compound 30]
